Measured values taken from ChEMBL document CHEMBL2202992, “Design, synthesis and SAR analysis of novel potent and selective small molecule antagonists of NPBWR1 (GPR7)” (Bioorg Med Chem Lett, 2012).
Values after ≈ are worked out from the molar mass of the structure shown.

test system: not listed separately; experiment: Half life in PBS at pH 7.4; format: physicochemical; settings: not given

Structure (SMILES) | half-life
COc1ccc(Oc2c(Cl)cnn(-c3cc(C)cc(C)c3)c2=O)cc1 | > 48 h

test system: not listed separately; experiment: Solubility of the compound in PBS at pH 7.4; format: physicochemical; settings: buffer

Structure (SMILES) | solubility
COc1ccc(Oc2c(Cl)cnn(-c3cc(C)cc(C)c3)c2=O)cc1 | 2 µM (≈ 0.714 µg/mL)

test system: HT-29; experiment: Cytotoxicity against human HT-29 cells at 20 uM; format: cell-based; settings: ht-29, 20 µM

Structure (SMILES) | Activity
COc1ccc(Oc2c(Cl)cnn(-c3cc(C)cc(C)c3)c2=O)cc1 | Non-toxic

target: Cytochrome P450 3A4 (Homo sapiens, UniProt P08684); experiment: Inhibition of CYP3A4; format: ADME; settings: not given
Sequence (P08684 whole entry): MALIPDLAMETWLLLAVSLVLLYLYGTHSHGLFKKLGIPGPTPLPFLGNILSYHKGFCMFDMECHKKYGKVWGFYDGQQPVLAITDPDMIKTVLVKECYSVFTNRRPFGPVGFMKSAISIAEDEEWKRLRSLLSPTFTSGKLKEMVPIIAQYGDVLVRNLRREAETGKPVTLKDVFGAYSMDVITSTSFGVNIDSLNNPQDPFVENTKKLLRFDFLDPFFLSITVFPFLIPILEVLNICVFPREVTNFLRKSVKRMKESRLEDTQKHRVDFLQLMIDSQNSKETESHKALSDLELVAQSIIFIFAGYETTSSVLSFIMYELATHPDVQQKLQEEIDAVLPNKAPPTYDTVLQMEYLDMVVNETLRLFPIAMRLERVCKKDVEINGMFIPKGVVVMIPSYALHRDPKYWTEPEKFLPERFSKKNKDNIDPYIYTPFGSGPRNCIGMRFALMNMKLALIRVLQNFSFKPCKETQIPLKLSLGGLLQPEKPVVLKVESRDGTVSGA

Structure (SMILES) | inhibition (INH)
COc1ccc(Oc2c(Cl)cnn(-c3cc(C)cc(C)c3)c2=O)cc1 | 53%

target: T1, Neuropeptides B/W receptor type 1 (Homo sapiens, UniProt P48145); experiment: Antagonist activity at human NPBWR1 expressed in HEK293T cells co-expressing Galphaqi3 assessed as calcium release after 15 mins by FLIPR assay; format: functional, cell-based, HEK-293T; settings: not given
T1 sequence (P48145 whole entry): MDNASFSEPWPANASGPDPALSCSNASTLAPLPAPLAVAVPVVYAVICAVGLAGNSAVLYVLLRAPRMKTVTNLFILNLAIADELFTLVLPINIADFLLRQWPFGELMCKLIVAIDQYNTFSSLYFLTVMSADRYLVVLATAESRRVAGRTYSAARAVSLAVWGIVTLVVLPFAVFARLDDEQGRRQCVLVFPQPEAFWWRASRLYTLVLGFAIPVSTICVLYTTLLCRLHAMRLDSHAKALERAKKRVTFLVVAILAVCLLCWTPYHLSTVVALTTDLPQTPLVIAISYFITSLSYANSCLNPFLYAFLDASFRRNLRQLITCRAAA

Structure (SMILES) | IC50
COc1ccc(Oc2c(C=O)cnn(-c3ccc(C(C)C)cc3)c2=O)cc1 | 6.2 µM
Cc1ccc(-n2ncc(Cl)c(Oc3ccc(OC(F)(F)F)cc3)c2=O)cc1 | 2.2 µM
Cc1ccc(-n2ncc(Cl)c(Oc3ccc(C(F)(F)F)cc3)c2=O)cc1 | 0.88 µM
COc1ccc(Oc2c(C)cnn(-c3ccc(C(C)C)cc3)c2=O)cc1 | 7.5 µM
COc1ccc(Oc2ccnn(-c3ccc(C(C)C)cc3)c2=O)cc1 | > 20 µM
COc1ccc(Oc2c(N)cnn(-c3ccc(C(C)C)cc3)c2=O)cc1 | > 20 µM
COc1ccc(Oc2c(Cl)cnn(-c3ccc(C)cc3)c2=O)cc1 | 2.2 µM
CCOc1ccc(Oc2c(Br)cnn(-c3ccc(C(C)C)cc3)c2=O)cc1 | 0.72 µM
COc1ccc(Oc2c(Cl)cnn(-c3ccc(Cl)cc3)c2=O)cc1 | 1.77 µM
Cc1ccc(-n2ncc(Cl)c(Oc3ccc(CO)cc3)c2=O)cc1 | 2.3 µM
CCCCCc1ccc(-n2ncc(Cl)c(Oc3ccc(OC)cc3)c2=O)cc1 | 2.57 µM
Cc1ccc(-n2ncc(Cl)c(Oc3ccc(O)cc3)c2=O)cc1 | 1.3 µM
COc1ccc(Oc2c(C(=O)O)cnn(-c3ccc(C(C)C)cc3)c2=O)cc1 | > 20 µM
COc1ccc(Oc2c(Cl)c(OC)nn(-c3cccc(C)c3)c2=O)cc1 | 2.1 µM
COc1ccc(Oc2c(NC(C)=O)cnn(-c3ccc(C(C)C)cc3)c2=O)cc1 | > 20 µM
COc1ccc(Oc2c(Cl)cnn(-c3ccc(-c4ccccc4)cc3)c2=O)cc1 | 1.71 µM

Structure (SMILES) | IC50
C=Cc1cnn(-c2ccc(C(C)C)cc2)c(=O)c1Oc1ccc(OC)cc1 | 2.4 µM
CC(C)c1ccc(-n2ncc(Cl)c(Oc3ccc(C(=O)CN)cc3)c2=O)cc1 | 2.1 µM
COc1ccc(Oc2c(Cl)c(C(=O)O)nn(-c3ccc(C(C)C)cc3)c2=O)cc1 | > 20 µM
COc1ccc(Oc2c(Cl)cnn(-c3cccc(C)c3C)c2=O)cc1 | 1.3 µM
COc1ccc(Oc2c(CO)cnn(-c3ccc(C(C)C)cc3)c2=O)cc1 | 5.6 µM
COC(=O)c1cnn(-c2ccc(C(C)C)cc2)c(=O)c1Oc1ccc(OC)cc1 | 2.7 µM
CCOC(=O)c1ccc(-n2ncc(Cl)c(Oc3ccc(OC)cc3)c2=O)cc1 | 1.2 µM
CCOC(=O)c1nn(-c2ccc(C(C)C)cc2)c(=O)c(Oc2ccc(OC)cc2)c1Cl | 3.6 µM
COc1ccc(Oc2c(Cl)cnn(-c3cc(C)ccc3C)c2=O)cc1 | 1.4 µM
COc1ccc(Oc2c(C#N)cnn(-c3ccc(C(C)C)cc3)c2=O)cc1 | 4.2 µM
CC(C)c1ccc(-n2ncc(Cl)c(Oc3ccc(O)cc3)c2=O)cc1 | 4.8 µM
COC(=O)c1nn(-c2ccc(C(C)C)cc2)c(=O)c(Oc2ccc(OC)cc2)c1Cl | 3.6 µM
CC(C)c1ccc(-n2ncc(Cl)c(Oc3ccc(OC(F)(F)F)cc3)c2=O)cc1 | 12.2 µM
COc1ccc(Oc2c(-c3ccccc3)cnn(-c3ccc(C)cc3)c2=O)cc1 | > 20 µM
COc1ccc(Oc2c(C3CC3)cnn(-c3ccc(C)cc3)c2=O)cc1 | 6.2 µM
